In US9145399B2, “Substituted bicyclic triazole derivatives as gamma secretase modulators” (Janssen Pharmaceuticals, Inc., priority 2010, dated 2015):

How the values were obtained:
Aβ42 = test: Screening for γ-secretase-modulating activity in SKNBE2 cells carrying APP 695 wild type: Aβ42 in cell supernatant (Alphalisa); format: cell-based; settings: Homo sapiens, SKNBE2, SKNBE2 cells carrying APP 695 wild type, overnight incubation
Method: (§1) Pharmacology A) Screening of the Compounds of the Invention for γ-Secretase-Modulating Activity
(§2) Screening was carried out using SKNBE2 cells carrying the APP 695—wild type, grown in Dulbecco's Modified Eagle's Medium/Nutrient mixture F-12 (DMEM/NUT-mix F-12) (HAM) provided by Invitrogen (cat no. 10371-029) containing 5% Serum/Fe supplemented with 1% non-essential amino acids, 1-glutamine 2 mM, Hepes 15 mM, penicillin 50 U/ml (units/ml) en streptomycin 50 μg/ml. Cells were grown to near confluency.
(§3) The screening was performed using a modification of the assay as described in Citron et al (1997) Nature Medicine 3: 67. Briefly, cells were plated in a 384-well plate at 10^4 cells/well in Ultraculture (Lonza, BE12-725F) supplemented with 1% glutamine (Invitrogen, 25030-024), 1% non-essential amino acid (NEAA), penicillin 50 U/ml en streptomycin 50 μg/ml in the presence of test compound at different test concentrations. The cell/compound mixture was incubated overnight at 37° C., 5% CO2. The next day the media were assayed by two sandwich immuno-assays, for Aβ42 and Aβtotal.
(§4) Aβtotal and Aβ42 concentrations were quantified in the cell supernatant using the Aphalisa technology (Perkin Elmer). Alphalisa is a sandwich assay using biotinylated antibody attached to streptavidin coated donorbeads and antibody conjugated to acceptor beads. In the presence of antigen, the beads come into close proximity. The excitation of the donor beads provokes the release of singlet oxygen molecules that trigger a cascade of energy transfer in the acceptor beads, resulting in light emission. To quantify the amount of Aβ42 in the cell supernatant, monoclonal antibody specific to the C-terminus of Aβ42 (JRF/cAβ42/26) was coupled to the receptor beads and biotinylated antibody specific to the N-terminus of Aβ (JRF/AβN/25) was used to react with the donor beads. T quantify the amount of Aβtotal in the cell supernatant, monoclonal antibody specific to the N-terminus of Aβ (JRF/AβN/25) was coupled to the receptor beads and biotinylated antibody specific to the mid region of Aβ (biotinylated 4G8) was used to react with the donor beads.
(§5) To obtain the values reported in Table 3, the data are calculated as percentage of the maximum amount of amyloid Beta 42 measured in the absence of the test compound. The sigmoidal dose response curves were analyzed using non-linear regression analysis with percentage of the control plotted against the log concentration of the compound. A 4-parameter equation was used to determine the IC50.

Aβtotal = test: Screening for γ-secretase-modulating activity in SKNBE2 cells carrying APP 695 wild type: Aβtotal in cell supernatant (Alphalisa); format: cell-based; settings: Homo sapiens, overnight incubation
Method: as §1, §2, §3, §4, §5

| IC50 (Aβ42) | IC50 (Aβtotal) | melting point | Compound |
| --- | --- | --- | --- |
| 15 nM | > 10000 nM | 251 °C | Cc1cc(-c2ccc(Nc3nc4c(-c5ccccc5Cl)cccn4n3)cc2F)ccn1 [Compound 25, 8-(2-chlorophenyl)-N-[3-fluoro-4-(2-methyl-4-pyridinyl)phenyl]-[1,2,4]triazolo[1,5-a]pyridin-2-amine] |
| 43 nM | > 10000 nM | 228.1 °C | Cc1cc(-c2ccc(Nc3nc4c(-c5ccccc5Cl)cccn4n3)cc2)cc(C)n1 [Compound 26, 8-(2-chlorophenyl)-N-[4-(2,6-dimethyl-4-pyridinyl)phenyl]-[1,2,4]triazolo[1,5-a]pyridin-2-amine] |
| 49 nM | > 10000 nM | 200.6 °C | COc1cc(Nc2nc3n(n2)CCCC3c2cccc(F)c2)ccc1-n1cnc(C)c1 (stereo not drawn) [Compound 30, 8-(3-fluorophenyl)-5,6,7,8-tetrahydro-N-[3-methoxy-4-(4-methyl-1H-imidazol-1-yl)phenyl]-[1,2,4]triazolo[1,5-a]pyridin-2-amine] |
| 12 nM | 9330 nM | 249 °C | COc1cc(Nc2nc3n(n2)CCCC3c2ccc(F)cc2C)ccc1-n1cnc(C)c1 (stereo not drawn) [Compound 32, 8-(4-fluoro-2-methylphenyl)-5,6,7,8-tetrahydro-N-[3-methoxy-4-(4-methyl-1H-imidazol-1-yl)phenyl]-[1,2,4]triazolo[1,5-a]pyridin-2-amine] |
| 10 nM | 7590 nM | 224.9 °C | COc1cc(Nc2nc3n(n2)CCCC3c2cccc(C(F)(F)F)c2)ccc1-n1cnc(C)c1 (stereo not drawn) [Compound 34, 5,6,7,8-tetrahydro-N-[3-methoxy-4-(4-methyl-1H-imidazol-1-yl)phenyl]-8-[3-(trifluoromethyl)phenyl]-[1,2,4]triazolo[1,5-a]pyridin-2-amine] |
| 29 nM | > 10000 nM | 258.5 °C | COc1cc(Nc2nc3n(n2)CCCC3c2ccccc2C(F)(F)F)ccc1-c1ocnc1C (stereo not drawn) [Compound 38, 5,6,7,8-tetrahydro-N-[3-methoxy-4-(4-methyl-5-oxazolyl)phenyl]-8-[2-(trifluoromethyl)phenyl]-[1,2,4]triazolo[1,5-a]pyridin-2-amine] |
| 39 nM | > 10000 nM | 170.1 °C | COc1cc(Nc2nc3n(n2)CCCC3c2cccc(F)c2)ccc1-c1ccnc(C)c1 (stereo not drawn) [Compound 44, 8-(3-fluorophenyl)-5,6,7,8-tetrahydro-N-[3-methoxy-4-(2-methyl-4-pyridinyl)phenyl]-[1,2,4]triazolo[1,5-a]pyridin-2-amine] |
| 55 nM | > 10000 nM | 202.9 °C | COc1cc(Nc2nc3n(n2)CCOC3c2ccccc2C(F)(F)F)ccc1-n1cnc(C)c1 (stereo not drawn) [Compound 47, 5,6-dihydro-N-[3-methoxy-4-(4-methyl-1H-imidazol-1-yl)phenyl]-8-[2-(trifluoromethyl)phenyl]-8H-[1,2,4]triazolo[5,1-c][1,4]oxazin-2-amine] |
| 30 nM | 5750 nM | 204.4 °C | COc1cc(Nc2nc3n(n2)CCCC3c2cc(C(F)(F)F)ccc2F)ccc1-n1cnc(C)c1 (stereo not drawn) [Compound 48, 8-[2-fluoro-5-(trifluoromethyl)phenyl]-5,6,7,8-tetrahydro-N-[3-methoxy-4-(4-methyl-1H-imidazol-1-yl)phenyl]-[1,2,4]triazolo[1,5-a]pyridin-2-amine] |
| 29 nM | > 10000 nM | 188.3 °C | COc1cc(Nc2nc3n(n2)CCCC3c2ccccc2F)ccc1-n1cnc(C)c1 (stereo not drawn) [Compound 49, 8-(2-fluorophenyl)-5,6,7,8-tetrahydro-N-[3-methoxy-4-(4-methyl-1H-imidazol-1-yl)phenyl]-[1,2,4]triazolo[1,5-a]pyridin-2-amine] |
| 19 nM | 8130 nM | 229.7 °C | COc1cc(Nc2nc3n(n2)CCCC3c2ccc(C(F)(F)F)cc2)ccc1-n1cnc(C)c1 (stereo not drawn) [Compound 50, 5,6,7,8-tetrahydro-N-[3-methoxy-4-(4-methyl-1H-imidazol-1-yl)phenyl]-8-[4-(trifluoromethyl)phenyl][1,2,4]triazolo[1,5-a]pyridin-2-amine] |
| 257 nM | > 10000 nM | 240.4 °C | FC(F)(F)c1ccccc1C1CCCn2nc(Nc3ccc(-c4ccncc4)cc3)nc21 (stereo not drawn) [Compound 75, 5,6,7,8-tetrahydro-N-[4-(4-pyridinyl)phenyl]-8-[2-(trifluoromethyl)phenyl]-[1,2,4]triazolo[1,5-a]pyridin-2-amine] |
| 46 nM | > 10000 nM | 216.1 °C | Cc1cc(-c2ccc(Nc3nc4n(n3)CCOC4c3ccccc3Cl)cc2)ccn1 (stereo not drawn) [Compound 76, 8-(2-chlorophenyl)-5,6-dihydro-N-[4-(2-methyl-4-pyridinyl)phenyl]-8H-[1,2,4]triazolo[5,1-c][1,4]oxazin-2-amine] |
| 40 nM | > 10000 nM | 167.9 °C | COc1cc(Nc2nc3n(n2)CCCC3c2ccccc2Cl)ccc1-c1ccnc(C)c1 (stereo not drawn) [Compound 77] |
| 21 nM | > 10000 nM | 201.9 °C | COc1cc(Nc2nc3n(n2)CCOC3c2ccc(F)cc2C)ccc1-c1ccnc(C)c1 (stereo not drawn) [Compound 92, 8-(4-fluoro-2-methylphenyl)-5,6-dihydro-N-[3-methoxy-4-(2-methyl-4-pyridinyl)phenyl]-8H-[1,2,4]triazolo[5,1-c][1,4]oxazin-2-amine] |
| 50 nM | > 10000 nM | 214.9 °C | COc1cc(Nc2nc3n(n2)CCCC3c2ccccc2F)ccc1-c1ccnc(C)c1 (stereo not drawn) [Compound 99, 8-(2-fluorophenyl)-5,6,7,8-tetrahydro-N-[3-methoxy-4-(2-methyl-4-pyridinyl)phenyl]-[1,2,4]triazolo[1,5-a]pyridin-2-amine] |
| 36 nM | > 10000 nM | 217.2 °C | COc1cc(Nc2nc3n(n2)CCOC3c2ccc(F)cc2F)ccc1-c1ccnc(C)c1 (stereo not drawn) [Compound 100, 8-(2,4-difluorophenyl)-5,6-dihydro-N-[3-methoxy-4-(2-methyl-4-pyridinyl)phenyl]-8H-[1,2,4]triazolo[5,1-c][1,4]oxazin-2-amine] |
| 29 nM | > 10000 nM | 148.4 °C | COc1cccc(C2CCCn3nc(Nc4ccc(-c5ccnc(C)c5)c(F)c4)nc32)c1 (stereo not drawn) [Compound 102, N-[3-fluoro-4-(2-methyl-4-pyridinyl)phenyl]-5,6,7,8-tetrahydro-8-(3-methoxyphenyl)-[1,2,4]triazolo[1,5-a]pyridin-2-amine] |
| 59 nM | > 10000 nM | 221.6 °C | COc1cccc(C2CCCn3nc(Nc4ccc(-c5ccnc(C)c5)cc4)nc32)c1 (stereo not drawn) [Compound 103, 5,6,7,8-tetrahydro-8-(3-methoxyphenyl)-N-[4-(2-methyl-4-pyridinyl)phenyl]-[1,2,4]triazolo[1,5-a]pyridin-2-amine] |
| 40 nM | > 15000 nM | 150.6 °C | COc1cc(C2CCCn3nc(Nc4ccc(-c5ccnc(C)c5)cc4)nc32)ccc1F (stereo not drawn) [Compound 106, 8-(4-fluoro-3-methoxyphenyl)-5,6,7,8-tetrahydro-N-[4-(2-methyl-4-pyridinyl)phenyl]-[1,2,4]triazolo[1,5-a]pyridin-2-amine] |
